Calls of active or inactive are those of the source. No cut-off for these calls is given here.
Legend:
[1] = tested on: NCI-H1975; assay: Antimigratory activity against human NCI-H1975 cells assessed as reduction in migration at 1 nM measured after 96 hrs by scratch wound healing based inverted microscopic analysis relative to control; format: functional
[2] = tested on: NCI-H1975; assay: Antimigratory activity against human NCI-H1975 cells assessed as reduction in migration at 5 nM measured after 96 hrs by scratch wound healing based inverted microscopic analysis relative to control; format: functional
[3] = tested on: NCI-H1975; assay: Antimigratory activity against human NCI-H1975 cells assessed as reduction in migration at 10 nM measured after 96 hrs by scratch wound healing based inverted microscopic analysis relative to control; format: functional
[4] = tested on: HepG2; assay: Antimigratory activity against human HepG2 cells assessed as reduction in migration at 0.1 nM measured after 96 hrs by scratch wound healing based inverted microscopic analysis relative to control; format: functional
[5] = tested on: HepG2; assay: Antimigratory activity against human HepG2 cells assessed as reduction in migration at 1 nM measured after 96 hrs by scratch wound healing based inverted microscopic analysis relative to control; format: functional
[6] = tested on: HepG2; assay: Antimigratory activity against human HepG2 cells assessed as reduction in migration at 10 nM measured after 96 hrs by scratch wound healing based inverted microscopic analysis relative to control; format: functional
[7] = tested on: HCT-116; assay: Antimigratory activity against human HCT-116 cells assessed as reduction in migration at 1 nM measured after 96 hrs by scratch wound healing based inverted microscopic analysis relative to control; format: functional
[8] = tested on: HCT-116; assay: Antimigratory activity against human HCT-116 cells assessed as reduction in migration at 5 nM measured after 96 hrs by scratch wound healing based inverted microscopic analysis relative to control; format: functional
[9] = tested on: HCT-116; assay: Antimigratory activity against human HCT-116 cells assessed as reduction in migration at 10 nM measured after 96 hrs by scratch wound healing based inverted microscopic analysis relative to control; format: functional
[10] = tested on: NCI-H1975; assay: Antiinvasive activity against human NCI-H1975 cells assessed as reduction in invasion at 1 to 10 nM measured after 48 hrs by DAPI staining based transwell assay; format: functional, cell-based; conditions: dose 1-10 nM
[11] = tested on: HepG2; assay: Antiinvasive activity against human HepG2 cells assessed as reduction in invasion at 0.1 to 10 nM measured after 48 hrs by DAPI staining based transwell assay; format: functional, cell-based; conditions: dose 0.1-10 nM
[12] = tested on: HCT-116; assay: Antiinvasive activity against human HCT-116 cells assessed as reduction in invasion at 1 to 10 nM measured after 48 hrs by DAPI staining based transwell assay; format: functional, cell-based; conditions: dose 1-10 nM
[13] = tested on: NCI-H1975; assay: Inhibition of epithelial-mesenchymal transition in human NCI-H1975 cells assessed as increase in E-cadherin expression at 1 to 100 nM by Western blot analysis; format: functional, cell-based; conditions: dose 1-100 nM
[14] = tested on: NCI-H1975; assay: Inhibition of epithelial-mesenchymal transition in human NCI-H1975 cells assessed as increase in Vimentin expression at 1 to 100 nM by Western blot analysis; format: functional, cell-based; conditions: dose 1-100 nM
[15] = tested on: NCI-H1975; assay: Inhibition of epithelial-mesenchymal transition in human NCI-H1975 cells assessed as decrease in N-cadherin expression at 1 to 100 nM by Western blot analysis; format: functional, cell-based; conditions: dose 1-100 nM
[16] = tested on: HepG2; assay: Inhibition of epithelial-mesenchymal transition in human HepG2 cells assessed as […] in E-cadherin expression at 0.1 to 10 uM by Western blot analysis; format: functional, cell-based; conditions: dose 0.1-10 µM
[17] = tested on: HepG2; assay: Inhibition of epithelial-mesenchymal transition in human HepG2 cells assessed as decrease in Vimentin expression at 0.1 to 10 uM by Western blot analysis; format: functional, cell-based; conditions: dose 0.1-10 µM
[18] = tested on: HepG2; assay: Inhibition of epithelial-mesenchymal transition in human HepG2 cells assessed as decrease in N-cadherin expression at 0.1 to 10 uM by Western blot analysis; format: functional, cell-based; conditions: dose 0.1-10 µM
[19] = tested on: HCT-116; assay: Inhibition of epithelial-mesenchymal transition in human HCT-116 cells assessed as increase in E-cadherin expression at 0.01 to 1 uM by Western blot analysis; format: functional, cell-based; conditions: dose 0.01-1 µM
[20] = tested on: HCT-116; assay: Inhibition of epithelial-mesenchymal transition in human HCT-116 cells assessed as decrease in Vimentin expression at 0.01 to 1 uM by Western blot analysis; format: functional, cell-based; conditions: dose 0.01-1 µM
[21] = tested on: HCT-116; assay: Inhibition of epithelial-mesenchymal transition in human HCT-116 cells assessed as decrease in N-cadherin expression at 0.01 to 1 uM by Western blot analysis; format: functional, cell-based; conditions: dose 0.01-1 µM
[22] = tested on: NCI-H1975; assay: Inhibition of epithelial-mesenchymal transition in human NCI-H1975 cells assessed as downregulation of MMP-2 by Western blot analysis; format: functional, cell-based; conditions: dose 1-100 nM
[23] = tested on: NCI-H1975; assay: Inhibition of epithelial-mesenchymal transition in human NCI-H1975 cells assessed as downregulation of MMP-9 by Western blot analysis; format: functional, cell-based; conditions: dose 1-100 nM
[24] = tested on: NCI-H1975; assay: Inhibition of epithelial-mesenchymal transition in human NCI-H1975 cells assessed as downregulation of Snail-1 by Western blot analysis; format: functional, cell-based; conditions: dose 1-100 nM
[25] = tested on: HepG2; assay: Inhibition of epithelial-mesenchymal transition in human HepG2 cells assessed as downregulation of MMP-2 by Western blot analysis; format: functional, cell-based; conditions: dose 0.1-10 µM
[26] = tested on: HepG2; assay: Inhibition of epithelial-mesenchymal transition in human HepG2 cells assessed as downregulation of MMP-9 by Western blot analysis; format: functional, cell-based; conditions: dose 0.1-10 µM
[27] = tested on: HepG2; assay: Inhibition of epithelial-mesenchymal transition in human HepG2 cells assessed as downregulation of Snail-1 by Western blot analysis; format: functional, cell-based; conditions: dose 0.1-10 µM
[28] = tested on: HCT-116; assay: Inhibition of epithelial-mesenchymal transition in human HCT-116 cells assessed as downregulation of MMP-2 by Western blot analysis; format: functional, cell-based; conditions: dose 0.01-1 µM
[29] = tested on: HCT-116; assay: Inhibition of epithelial-mesenchymal transition in human HCT-116 cells assessed as downregulation of MMP-9 by Western blot analysis; format: functional, cell-based; conditions: dose 0.01-1 µM
[30] = tested on: HCT-116; assay: Inhibition of epithelial-mesenchymal transition in human HCT-116 cells assessed as downregulation of Snail-1 by Western blot analysis; format: functional, cell-based; conditions: dose 0.01-1 µM

Compound: CCC1=C[C@@H]2CN(C1)Cc1c([nH]c3ccccc13)[C@@](C(=O)OC)(c1cc3c(cc1OC)N(C)[C@H]1[C@@](O)(C(=O)OC)[C@H](OC(C)=O)[C@]4(CC)C=CCN5CC[C@]31[C@@H]54)C2 [VINORELBINE]
- inhibition at 0.001 µM [1]: 0.7%
- inhibition at 0.005 µM [2]: 52.6%
- inhibition at 0.01 µM [3]: 70.5%
- inhibition at 0.0001 µM [4]: 11.7%
- inhibition at 0.001 µM [5]: 33.1%
- inhibition at 0.01 µM [6]: 47.4%
- inhibition at 0.001 µM [7]: 13%
- inhibition at 0.005 µM [8]: 28.5%
- inhibition at 0.01 µM [9]: 50.9%
- inhibition [10]: Active
- inhibition [11]: Active
- inhibition [12]: Active
- inhibition [13]: Active
- inhibition [14]: Active
- inhibition [15]: Active
- inhibition [16]: inactive
- inhibition [17]: inactive
- inhibition [18]: Active
- inhibition [19]: Active
- inhibition [20]: inactive
- inhibition [21]: Active
- inhibition [22]: Dose-dependent effect
- inhibition [23]: Dose-dependent effect
- inhibition [24]: Dose-dependent effect
- inhibition [25]: Dose-dependent effect
- inhibition [26]: Dose-dependent effect
- inhibition [27]: Dose-dependent effect
- inhibition [28]: Dose-dependent effect
- inhibition [29]: Dose-dependent effect
- inhibition [30]: Dose-dependent effect
